In patent US5001158A, “Nitrosoureas compounds preparation thereof and utilization thereof in anticancerous” (Centre National de la Recherche Scientifique, priority 1990, dated 1991):

Columns and labels:
[1] = Pharmacokinetic comparison of mixture A1 A2 with CNCC, all animal species; type: in vivo, mice, rats and rabbits; settings: p.o.
Description: (§1) The plasma absorption and clearance kinetics of the products A1 and A2 according to the invention were studied on different animal species after oral administration. A mixture A1 A2 in the proportions 70%/30% was used so as to be able to make a comparison with CNCC. The mixture A1 A2 and the CNCC were administered at equivalent doses and the plasma concentrations of A1 and A2 were measured as a function of time. cl (a) Experimental protocol
(§2) A solution of the mixture A1 A2 in distilled water is administered by stomach tube at a dose of 574 mg/m^2. A suspension of CNCC in olive oil is administered at a dose of 500 mg/m^2, also by stomach tube.
(§3) The blood, taken by cardiac puncture, is centrifuged rapidly at 4° C. The plasma (1 ml) is deposited on a cartridge of Extrelut® and extraction is carried out with 6 ml of methylene chloride. After evaporation, the dry extract is taken up in 150 μl of methylene chloride for chromatographic analysis.
(§4) Analysis of the plasma extracts for measuring the concentrations of A1 and A2 was performed by high performance liquid chromatography using the following technology:
The plasma concentrations of A1 and A2 after oral administration of either the mixture A1 A2 or CNCC to mice, rats and rabbits are reported in Table V.

[2] = Plasma concentrations of A1 and A2 after oral administration, mice; type: in vivo; settings: mouse, n = 10; for concentration at 1.5 h: 1 H 30 MIN; for concentration: 3 H; for concentration at 4.5 h: 4 H 30 MIN; for concentration at 0.25 h: 15 MIN; for concentration at 0.5 h: 30 MIN; for concentration at 0.75 h: 45 MIN
Description: as §1, §2, §3, §4
(§5) Detector: Pye Unicam spectrophotometer (Philips)λ250 nm.
(§6) Elution carried out by means of a linear gradient ranging from methylene chloride 99.6%/ethanol 0.4% to methylene chloride 95%/ethanol 5% in 15 minutes

[3] = Plasma concentrations of A1 and A2 after oral administration, rats; type: in vivo; settings: rat, n = 5; for concentration at 1.5 h: 1 H 30 MIN; for concentration: 3 H; for concentration at 0.25 h: 15 MIN; for concentration at 0.5 h: 30 MIN; for concentration at 0.75 h: 45 MIN
Description: as §1, §2, §3, §4, §5, §6

leukemia L 1210 = assay: Antitumoral activity of A1 and A2 on leukemia L 1210 grafted i.p. in mice (ICIG); type: in vivo, mice (B6 D2 F1 OLA)
Description: This activity was also studied on mice carrying leukemia L 1210 grafted i.p. This experimental tumor is the one most frequently used in the primary screening of cytostatic drugs.
These tests were conducted in parallel in two laboratories: at Unit 71 of the Institut National de la Sante et de la Recberche Mediecale (INSERM), ClermontFerrand, and at the Institut de Cancerologie et d' Immunogenetique (ICIG), Villejuif.
On day D:0, three-month-old male B6 D2 F1 mice received 10^5 cells of the leukemia strain L 1210 by intraperitoneal administration. The animals are divided up into groups of 8 to 10 animals for the control groups and 6 to 8 animals for the treated groups. On days D:1, D:5 and D:9, the animals receive the treatment at different doses by intraperitoneal or intravenous administration. The CNCC is administered as a suspension in olive oil. The products according to the invention are administered in physiological serum. The mortality is recorded every day. The survival median was determined for the treated animals and the control animals. The results are considered to be positive if the index I= [formula] is greater than 125.
The value .infin. means that 50% to 100% of the animals have survived to day D:90.
The cytostatic activity oi A1 and A2 on leukemia L 1210 was evaluated on B6 D2 F1 OLA mice at ICIG.
ICIG also studied the antitumoral activity of each isomer A1 and A2, separately administered intravenously, on leukemia L 1210. […] Comparison of the active doses with those of CNCC is impossible because of the insolubility of CNCC, as mentioned previously.

[4] = Plasma concentrations of A1 and A2 after oral administration, rabbits; type: in vivo; settings: rabbit, n = 5; for concentration at 1.5 h: 1 H 30 MIN; for concentration: 3 H; for concentration at 4.5 h: 4 H 30 MIN; for concentration at 0.25 h: 15 MIN; for concentration at 0.5 h: 30 MIN; for concentration at 0.75 h: 45 MIN
Description: as §1, §2, §3, §4, §5, §6

[5] = after mixture A1 A2 574 mg/m^2 p.o.

## C[S+]([O-])CCNC(=O)N(CCCl)N=O (stereo not drawn) [Compound A2]
[1]
  bioavailability compared with CNCC (in words): greater than that of CNCC
[1]; equivalent doses, whatever the animal species
  plasma concentrations after A1 A2 compared with after CNCC (in words): much higher
[1]; preliminary data
  plasma concentration after A1 A2 compared with after CNCC (in words): considerably greater
[2]; after CNCC 500 mg/m^2 p.o.
  concentration at 1.5 h: 12.7 µM
  concentration at 1 h: 19 µM
  concentration at 2 h: 9.9 µM
  concentration: 6.7 µM
  concentration at 4.5 h: 3.5 µM
  concentration at 5 min: 5.3 µM
  concentration at 0.25 h: 13.2 µM
  concentration at 0.5 h: 35.7 µM
  concentration at 0.75 h: 16.5 µM
[2]; [5]
  concentration at 1.5 h: 10.8 µM
  concentration at 1 h: 29.9 µM
  concentration at 2 h: 6.3 µM
  concentration: 2.9 µM
  concentration at 4.5 h: 0.9 µM
  concentration at 5 min: 83 µM
  concentration at 0.25 h: 81.5 µM
  concentration at 0.5 h: 66.3 µM
  concentration at 0.75 h: 43.7 µM
[3]; after CNCC 500 mg/m^2 p.o.
  concentration at 1.5 h: 11.4 µM
  concentration at 1 h: 8.1 µM
  concentration at 2 h: 6.4 µM
  concentration: 6.5 µM
  concentration at 5 min: 0.9 µM
  concentration at 0.25 h: 3.2 µM
  concentration at 0.5 h: 5.4 µM
  concentration at 0.75 h: 7.2 µM
[3]; after CNCC 500 mg/m^2 p.o., 4 H 30 MIN
  concentration at 4.5 h: 2.2 µM
[3]; [5]
  concentration at 1.5 h: 12.9 µM
  concentration at 1 h: 14.2 µM
  concentration at 2 h: 7.8 µM
  concentration: 2.9 µM
  concentration at 5 min: 8.5 µM
  concentration at 0.25 h: 17.7 µM
  concentration at 0.5 h: 22.5 µM
  concentration at 0.75 h: 11.4 µM
Leukemia L 1210; 5 mg/kg i.v.
  T/C × 100: .infin. (50% to 100% of the animals have survived to day D:90)
Leukemia L 1210; 10 mg/kg i.v.
  T/C × 100: .infin. (50% to 100% of the animals have survived to day D:90)
Leukemia L 1210; i.v.
  interval between doses for maximum efficacy (IDME): presence of an IDME
  percentage of mice surviving to day D:100 (in words): high percentage
Leukemia L 1210; i.v., isomers separately
  antitumoral activity (in words): high activity
[4]; after CNCC 500 mg/m^2 p.o.
  concentration at 1.5 h: 4.2 µM
  concentration at 2 h: 3.5 µM
  concentration: 2 µM
  concentration at 4.5 h: 1 µM
  concentration at 5 min: 1.8 µM
  concentration at 0.25 h: 5 µM
  concentration at 0.5 h: 6 µM
  concentration at 0.75 h: 5.5 µM
[4]; [5]
  concentration at 1.5 h: 9.2 µM
  concentration at 2 h: 6.3 µM
  concentration: 2.9 µM
  concentration at 4.5 h: 0.7 µM
  concentration at 5 min: 11 µM
  concentration at 0.25 h: 11.7 µM
  concentration at 0.5 h: 16.5 µM
  concentration at 0.75 h: 15 µM
[4]; after mixture A1 A2 574 mg/m^2 p.o., 1 H
  concentration at 1 h: 14.2 µM
